Test results published in patent US20240316012A1, “METHODS FOR TREATING LYMPHOMA” (Northwestern University, priority 2023, published 2024).

System: AP-1 family transcription factors
Test: ATAC-seq transcription factor footprint analysis after inhibitor incubation
Format: cell-based, mouse
Conditions: BMS-303141 5 μM, 3 hours in vitro vs DMSO
Method: Preparation of mouse and human ATAC-seq libraries. Ex vivo: For mouse ATAC-seq, ITK-SYK^CD4-creERT2, or ITK-SYK^CD4-creERT2; Pdcd1^−/− mice received a single dose of 2 mg tamoxifen. Five days after injection, single-cell suspensions were generated from the spleens and 50,000 eGFP^+ FACS-sorted cells were used for the transposase reaction. For human ATAC-seq, 50,000 malignant cells from CTCL patients with and without PDCD1 mutation were sorted by FACS as described above. The transposase reaction was performed as previously described^81. […] The reaction was monitored after 4 cycles with qPCR using 5 μl PCR reaction mixture and the same primers in 15 μl total volume (KK4617, Roche). Cycles were added as calculated, then the amplified samples were purified, and size selected using SpeedBeads (GE65152105050250, Sigma) in 22% PEG. […]
ATAC-seq analysis. […] Next, reads were aligned to the mm9 genome using Bowtie2 (v2.4.0)^71. […] To filter properly mapped reads, Applicants used Samtools with the following options: exclude multi-mapped reads (MAPQ<30) and reads with flag 1796 or 1804. Next, Samtools with option “-f 2” was used to filter properly paired reads. […] Next, Applicants filtered for nucleosome-free reads (0-100 bp) as previously described^44. […]

SMILES: COc1ccc(-c2ccccc2)cc1NS(=O)(=O)c1cc(Cl)cc(Cl)c1O [BMS-303141]
- AP-1 footprints in Pdcd1 deleted cells in comparison to cells with intact PD-1 pathway: de-enriched
